# Where two headings read alike, the source gives them in different places.
# Assays:
# 5-HT4 receptors = 5-HT4 receptors (Cavia porcellus (Guinea pig), UniProt O70528); assay: Affinity as regards 5-HT4 receptors: competition against [3H]-GR113808 on striatal membranes; assay type: binding
# [1] = target: human acetylcholinesterase (Homo sapiens (Human), UniProt P22303); assay: biochemical; assay type: biochemical; conditions: acetylcholinesterase from human erythrocytes
# Protocol: 100 μL of a 0.3 mM 5,5-dithiobis(2-nitrobenzoic acid) (DTNB) solution in a pH 7.4 phosphate buffer are introduced into a 96-well plate, followed by 50 μL of compound to be tested in solution in DMSO and 50 μL of enzyme solution. After 5 min of preincubation, the reaction is initiated by injecting 50 μL of 10 mM acetylthiocholine iodide solution. […] Donepezil is used as a reference product.
# 5-HT4 receptor = 5-HT4 receptor (Homo sapiens (Human), UniProt Q13639); assay: Agonist nature as regards the 5-HT4 receptor: accumulation of intracellular cyclic AMP in stably transfected CHO cells; assay type: cell-based; conditions: percentage of agonist effect in relation to serotonin
# [2] = target: peripheral site of eeAChE (Electrophorus electricus (Electric eel) (Gymnotus electricus), UniProt O42275); assay type: binding
# Protocol: When propidium diiodide binds to the peripheral site of AChE, it produces an increase in fluorescence which can be used as proof of its binding to the enzyme. Fluorescence measurements are made in 200 μL of solution in 96-well plates using a Tecan Infinite M2000 microplate reader. […] 50 μL of micromolar solution of propidium diiodide are added before measuring fluorescence. […] Each test is repeated at least three times.
# male NMRI mice = assay: Object recognition test; assay type: in vivo; conditions: intraperitoneal, 30 minutes before the acquisition session
# Protocol: The tests are performed using male NMRI mice of around 3 months old at the time of the tests.
# The object recognition test is based on the spontaneous preference of rodents for novelty, without bringing food deprivation or electric shock into play.
# The device comprises a square PVC enclosure (33×33×20 cm, illuminated at 10 lux in the center) with black surfaces. The test is performed in 2 phases: one habituation phase, allowing the animals to become habituated to the test environment (enclosure, room, experimenter), the other a memory performance assessment phase. A camera is positioned above the device and connected to a video-tracking system (ViewPoint®). During the behavioral tests, the experimenter is not present in the experimentation room but remains in an adjacent room that houses the video-tracking system.
# After a habituation phase (Day 1, individual exposure for 5 minutes to the open-field with no objects), the memory performance assessment phase begins on the 2nd day and is made up of 2 sessions, one the presentation session and the other the test session. […] The exploration time of each object, A1 and A2 respectively, as well as the time required to achieve the exploration criterion are measured. […] The time required to achieve the exploration criterion as well as the exploration time of the new object are measured and the latter is compared to the chance level (15 s). […]
# [3] = 10^-5 M solution of compound, eeAChE, propidium diiodide fluorescence
# 5-HT4 receptor, sequence (Q13639 whole entry): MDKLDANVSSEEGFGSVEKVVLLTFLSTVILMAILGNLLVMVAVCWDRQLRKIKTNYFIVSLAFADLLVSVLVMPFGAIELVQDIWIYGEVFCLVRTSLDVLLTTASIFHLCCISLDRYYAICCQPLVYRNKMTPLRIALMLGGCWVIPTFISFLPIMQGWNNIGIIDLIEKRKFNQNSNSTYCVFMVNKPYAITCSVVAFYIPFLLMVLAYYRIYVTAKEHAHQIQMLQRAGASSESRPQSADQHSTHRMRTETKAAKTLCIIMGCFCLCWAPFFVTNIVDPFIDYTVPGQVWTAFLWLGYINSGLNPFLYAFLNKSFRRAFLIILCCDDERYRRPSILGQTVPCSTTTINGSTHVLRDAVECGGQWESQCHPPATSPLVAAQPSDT
# peripheral site of eeAChE, sequence (O42275 whole entry, looked up): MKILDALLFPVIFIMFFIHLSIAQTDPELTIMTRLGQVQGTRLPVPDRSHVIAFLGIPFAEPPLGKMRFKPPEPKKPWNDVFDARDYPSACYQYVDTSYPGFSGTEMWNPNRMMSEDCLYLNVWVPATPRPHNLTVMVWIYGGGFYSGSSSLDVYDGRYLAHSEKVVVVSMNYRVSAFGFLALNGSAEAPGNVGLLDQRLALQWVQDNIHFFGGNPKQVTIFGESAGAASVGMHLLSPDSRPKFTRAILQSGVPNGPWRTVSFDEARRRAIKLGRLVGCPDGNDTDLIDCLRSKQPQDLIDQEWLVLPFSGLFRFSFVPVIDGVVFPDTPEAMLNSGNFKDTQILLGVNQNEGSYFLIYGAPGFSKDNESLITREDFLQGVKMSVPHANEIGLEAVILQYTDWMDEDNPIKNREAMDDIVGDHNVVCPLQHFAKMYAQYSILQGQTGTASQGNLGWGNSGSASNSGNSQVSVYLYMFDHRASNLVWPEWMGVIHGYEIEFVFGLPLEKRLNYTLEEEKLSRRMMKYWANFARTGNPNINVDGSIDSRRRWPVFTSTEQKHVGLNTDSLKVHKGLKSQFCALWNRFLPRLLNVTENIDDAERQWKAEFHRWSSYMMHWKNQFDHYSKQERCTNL
# human acetylcholinesterase, sequence (P22303 32-574 with tags or gaps limits assumed): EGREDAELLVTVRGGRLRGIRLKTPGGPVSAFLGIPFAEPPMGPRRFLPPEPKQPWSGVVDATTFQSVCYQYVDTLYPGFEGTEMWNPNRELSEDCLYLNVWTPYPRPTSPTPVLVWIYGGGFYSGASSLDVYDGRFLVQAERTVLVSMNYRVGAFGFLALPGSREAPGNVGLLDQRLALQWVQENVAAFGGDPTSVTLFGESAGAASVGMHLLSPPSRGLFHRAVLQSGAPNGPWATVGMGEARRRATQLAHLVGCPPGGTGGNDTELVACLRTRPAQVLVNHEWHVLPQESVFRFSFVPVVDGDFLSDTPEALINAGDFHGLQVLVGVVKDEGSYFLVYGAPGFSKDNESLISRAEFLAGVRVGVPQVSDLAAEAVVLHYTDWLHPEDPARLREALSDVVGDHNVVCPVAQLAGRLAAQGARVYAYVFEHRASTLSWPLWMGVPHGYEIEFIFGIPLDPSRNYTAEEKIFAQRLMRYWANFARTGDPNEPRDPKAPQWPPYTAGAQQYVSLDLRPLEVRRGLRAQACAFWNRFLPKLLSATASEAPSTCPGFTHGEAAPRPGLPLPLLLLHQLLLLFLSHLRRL
# 5-HT4 receptors, sequence (O70528 whole entry): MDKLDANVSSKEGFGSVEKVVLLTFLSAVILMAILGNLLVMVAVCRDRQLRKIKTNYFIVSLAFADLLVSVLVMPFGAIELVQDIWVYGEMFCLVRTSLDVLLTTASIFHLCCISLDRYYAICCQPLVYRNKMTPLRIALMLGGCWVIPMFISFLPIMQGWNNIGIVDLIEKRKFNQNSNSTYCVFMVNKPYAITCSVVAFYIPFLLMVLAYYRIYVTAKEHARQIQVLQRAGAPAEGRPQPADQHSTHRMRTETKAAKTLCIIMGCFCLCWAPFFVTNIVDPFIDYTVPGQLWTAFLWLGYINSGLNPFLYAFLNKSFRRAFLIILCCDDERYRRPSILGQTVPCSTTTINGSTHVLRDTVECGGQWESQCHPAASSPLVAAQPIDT
SMILES,Agonistic effect % (5-HT4 receptor) [%],"% Propidium Displacement [2, 3] [%]",other results
"CCCCN1CCC(CCC(=O)c2cc(Br)c(N)cc2OC)CC1 [Compound 2, 1-(4-amino-5-bromo-2-methoxyphenyl)-3-[1-butyl-4-piperidyl]propan-1-one]",–,–,Ki (5-HT4 receptors): 0.0089 µM; IC50 [1]: 0.445 µM
"COc1cc(N)c(F)cc1C(=O)CCC1CCN(CC2CCCCC2)CC1 [Compound 5, 1-(4-amino-5-fluoro-2-methoxyphenyl)-3-[1-(cyclohexylmethyl)-4-piperidyl]propan-1-one]",16,22,–
"COc1cc(N)c(Cl)cc1C(=O)CCC1CCN(CC2CCCC2)CC1 [Compound 8, 1-(4-amino-5-chloro-2-methoxyphenyl)-3-[1-(cyclopentylmethyl)-4-piperidyl]propan-1-one]",12,20,–
"COc1cc(N)c(Cl)cc1C(=O)CCC1CCN(CC2CCCCC2)CC1 [Compound 9, 1-(4-amino-5-chloro-2-methoxyphenyl)-3-[1-(cyclohexylmethyl)-4-piperidyl]propan-1-one]",22,22,dose of maximum effect on object recognition performance (male NMRI mice): 0.3 mg/kg; object recognition performance compared to the control batch (male NMRI mice; 24 hours intersession): improvement in object recognition performance compared to the control batch
"COc1cc(N)c(Cl)cc1C(=O)CCC1CCN(CC2CCCCCC2)CC1 [Compound 12, 1-(4-amino-5-chloro-2-methoxyphenyl)-3-[1-(cycloheptylmethyl)-4-piperidyl]propan-1-one]",21,20,–
"COc1cc(N)c(Br)cc1C(=O)CCC1CCN(CC2CCCCC2)CC1 [Compound 14, 1-(4-amino-5-bromo-2-methoxyphenyl)-3-[1-(cyclohexylmethyl)-4-piperidyl]propan-1-one]",–,–,% Propidium Displacement [2]: 20%
"COc1cc(N)c(Cl)cc1C(=O)CCC1CCN(CCC2CCCCC2)CC1 [Compound 16, 1-(4-amino-5-chloro-2-methoxyphenyl)-3-[1-(cyclohexylethyl)-4-piperidyl]propan-1-one]",–,–,% Propidium Displacement [2]: 21%
"COc1cc(N)c(Cl)cc1C(=O)NCC1CCN(CC2CCCCC2)CC1 [Compound 17, 4-amino-5-chloro-[[1-(cyclohexylmethyl)-4-piperidyl]methyl]-2-methoxybenzamide]",–,–,"Ki (5-HT4 receptors; 0.1 nM [3H]-GR113808, guinea pig striatal membranes, read-out: Ki): 0.0023 µM; IC50 [1]: 3.73 µM"
"Nc1cc(OCCF)c(C(=O)CCC2CCN(CC3CCCCC3)CC2)cc1Cl [Compound 23, 1-[4-amino-5-chloro-2-(2-fluoroéthoxy)phenyl]-3-[1-(cyclohexylmethyl)-4-piperidyl]propan-1-one]",–,22,–
"COCCCN1CCC(NC(=O)c2cc(Cl)c(N)c3c2OCC3)CC1 [prucalopride, reference compound]",100,–,–

# From US9663465B2, “Acetylcholinesterase inhibitors and promnesiant serotonin 5-HT4 receptor agonists, their methods of preparation and the pharmaceutical compositions containing the same” (UNIVERSITE DE CAEN, priority 2013, dated 2017)
